From PubChem BioAssay (NCI)
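Exposure lasted 48 hours, with cells grown in 96-well plates and compounds tested at five concentrations. The concentration for 50% growth inhibition is given as GI50. Definition used: TGI = concentration required for complete inhibition of growth.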

Experiments:
Test in all cases: NCI-60 cell line screen, 48 h; in the data active means GI50 below about 0.43 µM; inactive means the rest
NCI/ADR-RES ovarian = system: NCI/ADR-RES ovarian
UO-31 renal = system: UO-31 renal
K-562 leukemia = system: K-562 leukemia
CAKI-1 renal = system: CAKI-1 renal
A549 NSCLC = system: A549 NSCLC
MDA-MB-231 breast = system: MDA-MB-231 breast
MDA-MB-435 = system: MDA-MB-435
HCT-15 colon = system: HCT-15 colon
TK-10 renal = system: TK-10 renal
DU-145 prostate = system: DU-145 prostate
NCI-H460 lung = system: NCI-H460 lung
OVCAR-8 ovarian = system: OVCAR-8 ovarian
SW-620 colon = system: SW-620 colon
KM12 colon = system: KM12 colon
OVCAR-5 ovarian = system: OVCAR-5 ovarian
IGROV1 ovarian = system: IGROV1 ovarian
HS 578T breast = system: HS 578T breast
M14 melanoma = system: M14 melanoma
LOX IMVI melanoma = system: LOX IMVI melanoma
SF-295 CNS = system: SF-295 CNS
SK-MEL-28 melanoma = system: SK-MEL-28 melanoma
NCI-H522 lung = system: NCI-H522 lung
RXF 393 renal = system: RXF 393 renal
T-47D breast = system: T-47D breast
786-0 renal = system: 786-0 renal
SF-539 CNS = system: SF-539 CNS
SK-MEL-2 melanoma = system: SK-MEL-2 melanoma
COLO 205 colon = system: COLO 205 colon
UACC-257 melanoma = system: UACC-257 melanoma
HCC-2998 colon = system: HCC-2998 colon
SK-OV-3 ovarian = system: SK-OV-3 ovarian
HT29 colon = system: HT29 colon
SN12C renal = system: SN12C renal
CCRF-CEM leukemia = system: CCRF-CEM leukemia
PC-3 prostate = system: PC-3 prostate
SF-268 CNS = system: SF-268 CNS
MCF7 breast = system: MCF7 breast
UACC-62 melanoma = system: UACC-62 melanoma
RPMI-8226 leukemia = system: RPMI-8226 leukemia
NCI-H23 lung = system: NCI-H23 lung
HOP-92 NSCLC = system: HOP-92 NSCLC
EKVX NSCLC = system: EKVX NSCLC
SK-MEL-5 melanoma = system: SK-MEL-5 melanoma
U251 CNS = system: U251 CNS
OVCAR-4 ovarian = system: OVCAR-4 ovarian
A498 renal = system: A498 renal
MALME-3M melanoma = system: MALME-3M melanoma
SNB-19 CNS = system: SNB-19 CNS
HCT-116 colon = system: HCT-116 colon
OVCAR-3 ovarian = system: OVCAR-3 ovarian
BT-549 breast = system: BT-549 breast
ACHN renal = system: ACHN renal
HL-60(TB) leukemia = system: HL-60(TB) leukemia
SNB-75 CNS = system: SNB-75 CNS
HOP-62 NSCLC = system: HOP-62 NSCLC
MOLT-4 leukemia = system: MOLT-4 leukemia
SR leukemia = system: SR leukemia
NCI-H226 lung = system: NCI-H226 lung

Cc1cn2c(=O)n(c1=O)Cc1ccccc1C2
active: GI50 (T-47D breast) 0.182 µM
> 100 µM: TGI (NCI/ADR-RES ovarian) | TGI (UO-31 renal) | TGI (K-562 leukemia) | TGI (CAKI-1 renal) | TGI (A549 NSCLC) | TGI (MDA-MB-231 breast) | TGI (MDA-MB-435) | TGI (HCT-15 colon) | TGI (TK-10 renal) | TGI (DU-145 prostate) | TGI (NCI-H460 lung) | TGI (OVCAR-8 ovarian) | TGI (SW-620 colon) | TGI (KM12 colon) | TGI (OVCAR-5 ovarian) | TGI (IGROV1 ovarian) | TGI (HS 578T breast) | TGI (M14 melanoma) | TGI (LOX IMVI melanoma) | TGI (SF-295 CNS) | TGI (SK-MEL-28 melanoma) | TGI (NCI-H522 lung) | TGI (RXF 393 renal) | TGI (786-0 renal) | TGI (SF-539 CNS) | TGI (SK-MEL-2 melanoma) | TGI (UACC-257 melanoma) | TGI (HCC-2998 colon) | TGI (SK-OV-3 ovarian) | TGI (HT29 colon) | TGI (SN12C renal) | TGI (CCRF-CEM leukemia) | TGI (PC-3 prostate) | TGI (SF-268 CNS) | TGI (MCF7 breast) | TGI (UACC-62 melanoma) | TGI (RPMI-8226 leukemia) | TGI (NCI-H23 lung) | TGI (HOP-92 NSCLC) | TGI (EKVX NSCLC) | TGI (SK-MEL-5 melanoma) | TGI (U251 CNS) | TGI (OVCAR-4 ovarian) | TGI (A498 renal) | TGI (MALME-3M melanoma) | TGI (SNB-19 CNS) | TGI (HCT-116 colon) | TGI (OVCAR-3 ovarian) | TGI (BT-549 breast) | TGI (ACHN renal) | TGI (HL-60(TB) leukemia) | TGI (SNB-75 CNS) | TGI (HOP-62 NSCLC)
10.8 µM: TGI (T-47D breast)
31.9 µM: TGI (COLO 205 colon)
inactive: GI50 (NCI/ADR-RES ovarian) > 100 µM | GI50 (UO-31 renal) 32.3 µM | GI50 (K-562 leukemia) > 100 µM | GI50 (CAKI-1 renal) > 100 µM | GI50 (A549 NSCLC) > 100 µM | GI50 (MDA-MB-231 breast) 5.84 µM | GI50 (MDA-MB-435) > 100 µM | GI50 (HCT-15 colon) > 100 µM | GI50 (TK-10 renal) > 100 µM | GI50 (DU-145 prostate) > 100 µM | GI50 (NCI-H460 lung) > 100 µM | GI50 (OVCAR-8 ovarian) 46.6 µM | GI50 (SW-620 colon) > 100 µM | GI50 (KM12 colon) > 100 µM | GI50 (OVCAR-5 ovarian) > 100 µM | GI50 (IGROV1 ovarian) 41.7 µM | GI50 (HS 578T breast) 8.97 µM | GI50 (M14 melanoma) > 100 µM | GI50 (LOX IMVI melanoma) 32 µM | GI50 (SF-295 CNS) > 100 µM | GI50 (SK-MEL-28 melanoma) > 100 µM | GI50 (NCI-H522 lung) 43.4 µM | GI50 (RXF 393 renal) 19.5 µM | GI50 (786-0 renal) 68.7 µM | GI50 (SF-539 CNS) > 100 µM | GI50 (SK-MEL-2 melanoma) > 100 µM | GI50 (COLO 205 colon) 1.04 µM | GI50 (UACC-257 melanoma) > 100 µM | GI50 (HCC-2998 colon) > 100 µM | GI50 (SK-OV-3 ovarian) 5.79 µM | GI50 (HT29 colon) > 100 µM | GI50 (SN12C renal) > 100 µM | GI50 (CCRF-CEM leukemia) 50.6 µM | GI50 (PC-3 prostate) > 100 µM | GI50 (SF-268 CNS) 38.6 µM | GI50 (MCF7 breast) 35.1 µM | GI50 (UACC-62 melanoma) 63.1 µM | GI50 (RPMI-8226 leukemia) 28.3 µM | GI50 (NCI-H23 lung) > 100 µM | GI50 (HOP-92 NSCLC) > 100 µM | GI50 (EKVX NSCLC) > 100 µM | GI50 (SK-MEL-5 melanoma) 83.1 µM | GI50 (U251 CNS) > 100 µM | GI50 (OVCAR-4 ovarian) > 100 µM | GI50 (A498 renal) 35.1 µM | GI50 (MALME-3M melanoma) > 100 µM | GI50 (SNB-19 CNS) > 100 µM | GI50 (HCT-116 colon) 27.3 µM | GI50 (OVCAR-3 ovarian) > 100 µM | GI50 (BT-549 breast) 48.4 µM | GI50 (ACHN renal) > 100 µM | GI50 (HL-60(TB) leukemia) > 100 µM | GI50 (SNB-75 CNS) 85.9 µM | GI50 (HOP-62 NSCLC) > 100 µM

COc1ccc(C2=C(c3cc(OC)c(OC)c(OC)c3)C(=O)OC2)cc1OC
1.24 µM: TGI (CAKI-1 renal)
73.1 µM: TGI (SN12C renal)
30.5 µM: TGI (SF-268 CNS)
> 75.9 µM: TGI (MDA-MB-231 breast)
39.1 µM: TGI (HS 578T breast)
55.5 µM: TGI (HCT-116 colon)
1.76 µM: TGI (M14 melanoma)
13.4 µM: TGI (NCI-H23 lung)
active: GI50 (UO-31 renal) 0.284 µM | GI50 (K-562 leukemia) < 0.0153 µM | GI50 (CAKI-1 renal) < 0.01 µM | GI50 (A549 NSCLC) 0.25 µM | GI50 (MDA-MB-435) < 0.01 µM | GI50 (HCT-15 colon) 0.0354 µM | GI50 (TK-10 renal) < 0.0283 µM | GI50 (NCI-H460 lung) < 0.0222 µM | GI50 (OVCAR-8 ovarian) 0.163 µM | GI50 (SW-620 colon) 0.105 µM | GI50 (KM12 colon) < 0.0164 µM | GI50 (OVCAR-5 ovarian) 0.379 µM | GI50 (IGROV1 ovarian) 0.353 µM | GI50 (HS 578T breast) 0.123 µM | GI50 (M14 melanoma) 0.0231 µM | GI50 (SF-295 CNS) < 0.01 µM | GI50 (NCI-H522 lung) < 0.0189 µM | GI50 (MOLT-4 leukemia) 0.0466 µM | GI50 (RXF 393 renal) 0.0146 µM | GI50 (786-0 renal) 0.0522 µM | GI50 (SF-539 CNS) 0.301 µM | GI50 (SK-MEL-2 melanoma) 0.0313 µM | GI50 (COLO 205 colon) 0.295 µM | GI50 (SR leukemia) < 0.01 µM | GI50 (HCC-2998 colon) 0.025 µM | GI50 (HT29 colon) 0.0256 µM | GI50 (CCRF-CEM leukemia) < 0.01 µM | GI50 (PC-3 prostate) < 0.0151 µM | GI50 (SF-268 CNS) 0.0906 µM | GI50 (MCF7 breast) < 0.0187 µM | GI50 (UACC-62 melanoma) 0.336 µM | GI50 (RPMI-8226 leukemia) < 0.0199 µM | GI50 (NCI-H23 lung) 0.0251 µM | GI50 (SK-MEL-5 melanoma) 0.0182 µM | GI50 (U251 CNS) 0.187 µM | GI50 (A498 renal) 0.134 µM | GI50 (HCT-116 colon) 0.0548 µM | GI50 (OVCAR-3 ovarian) < 0.0112 µM | GI50 (HOP-62 NSCLC) 0.0465 µM
0.0109 µM: TGI (MDA-MB-435)
> 62.3 µM: TGI (786-0 renal)
> 48.4 µM: TGI (OVCAR-5 ovarian)
0.0217 µM: TGI (SF-295 CNS)
4.1 µM: TGI (SF-539 CNS)
> 29.1 µM: TGI (A549 NSCLC)
1.91 µM: TGI (TK-10 renal)
0.941 µM: TGI (COLO 205 colon)
> 24.3 µM: TGI (HT29 colon)
> 100 µM: TGI (K-562 leukemia) | TGI (HCT-15 colon) | TGI (DU-145 prostate) | TGI (SW-620 colon) | TGI (SK-MEL-28 melanoma) | TGI (MOLT-4 leukemia) | TGI (RXF 393 renal) | TGI (T-47D breast) | TGI (SK-MEL-2 melanoma) | TGI (SK-OV-3 ovarian) | TGI (CCRF-CEM leukemia) | TGI (PC-3 prostate) | TGI (MCF7 breast) | TGI (HOP-92 NSCLC) | TGI (EKVX NSCLC) | TGI (U251 CNS) | TGI (OVCAR-4 ovarian) | TGI (SNB-19 CNS) | TGI (ACHN renal) | TGI (SNB-75 CNS) | TGI (HOP-62 NSCLC)
> 79.5 µM: TGI (UACC-62 melanoma)
> 46.7 µM: TGI (NCI-H522 lung)
> 81.1 µM: TGI (UACC-257 melanoma)
> 55.6 µM: TGI (IGROV1 ovarian)
21.3 µM: TGI (A498 renal)
> 50.9 µM: TGI (UO-31 renal)
0.961 µM: TGI (RPMI-8226 leukemia)
97.9 µM: TGI (BT-549 breast)
< 0.0206 µM: TGI (OVCAR-3 ovarian)
> 42.6 µM: TGI (NCI-H460 lung)
0.299 µM: TGI (HCC-2998 colon)
1.5 µM: TGI (SK-MEL-5 melanoma)
inactive: GI50 (MDA-MB-231 breast) 0.576 µM | GI50 (DU-145 prostate) 0.821 µM | GI50 (LOX IMVI melanoma) 0.428 µM | GI50 (SK-MEL-28 melanoma) 47.6 µM | GI50 (T-47D breast) 54 µM | GI50 (UACC-257 melanoma) > 38.6 µM | GI50 (SK-OV-3 ovarian) 8.27 µM | GI50 (SN12C renal) 0.567 µM | GI50 (HOP-92 NSCLC) 6.65 µM | GI50 (EKVX NSCLC) 34.5 µM | GI50 (OVCAR-4 ovarian) 2.65 µM | GI50 (SNB-19 CNS) 0.891 µM | GI50 (BT-549 breast) 12.1 µM | GI50 (ACHN renal) 67.5 µM | GI50 (NCI-H226 lung) 6.06 µM | GI50 (SNB-75 CNS) > 100 µM
> 28.5 µM: TGI (NCI-H226 lung)
> 49.4 µM: TGI (LOX IMVI melanoma)
